Laboratory results taken from US20030199692A1, “Propanoic acid derivatives that inhibit the binding of integrins to their receptors” (priority 1999, published 2003).
pIC50: −log10 of the molar value.

Molecular target: T1, α4β1 integrin (Homo sapiens, UniProt P05556+P13612)
T1 construct: endogenous in cells; host or cells: Ramos cells
Experiment: Inhibition of adhesion of calcein AM-labeled Ramos cells to CS1 (fibronectin) peptide-conjugated ovalbumin
Type: cell-based
Conditions: for pIC50: Ramos cell adhesion to CS1-conjugated ovalbumin, 30 minutes at 37° C.
Protocol: The ability of compounds of the present invention to inhibit binding is determined by a procedure in which a 26-amino acid peptide containing the CS1 sequence of fibronectin with an N-terminal Cys ([…]) was coupled to maleimide activated ovalbumin. Bovine serum albumin (BSA) and CS1 conjugated ovalbumin were coated onto 96-well polystyrene plates at 0.5 mg/ml in TBS (50 mM Tris, pH 7.5; 150 mM NaCl) at 4° C. for 16 hours. The plates were washed three times with TBS and blocked with TBS containing 3% BSA at room temperature for 4 hours. Blocked plates were washed three times in binding buffer (TBS; 1 mM MgCl2; 1 mM CaCl2; 1 mM MnCl2) prior to assay. Ramos cells fluorescently labeled with calcein AM were resuspended in binding buffer (10^7 cells/ml) and diluted 1:2 with same buffer with or without compound. The cells were added immediately to the wells (2.5×10^5 cells/well) and incubated for 30 minutes at 37° C. Following three washes with binding buffer, adherent cells were lysed and quantitated using a fluorometer. IC50 is defined as the dose required to give 50% inhibition. MS in Table 3 stands for Mass Spec. nd stands for not determined in the Tables. A stands for inhibition in Table 2, and the percent inhibition indicates the inhibition of cell adhesion when compound is included in the assay at a concentration of 100 μM. The lower the IC50 value and the greater the percentage of inhibition, the more efficient the compound is at prevention of cell adhesion.

T1 sequence (P13612 34-1032): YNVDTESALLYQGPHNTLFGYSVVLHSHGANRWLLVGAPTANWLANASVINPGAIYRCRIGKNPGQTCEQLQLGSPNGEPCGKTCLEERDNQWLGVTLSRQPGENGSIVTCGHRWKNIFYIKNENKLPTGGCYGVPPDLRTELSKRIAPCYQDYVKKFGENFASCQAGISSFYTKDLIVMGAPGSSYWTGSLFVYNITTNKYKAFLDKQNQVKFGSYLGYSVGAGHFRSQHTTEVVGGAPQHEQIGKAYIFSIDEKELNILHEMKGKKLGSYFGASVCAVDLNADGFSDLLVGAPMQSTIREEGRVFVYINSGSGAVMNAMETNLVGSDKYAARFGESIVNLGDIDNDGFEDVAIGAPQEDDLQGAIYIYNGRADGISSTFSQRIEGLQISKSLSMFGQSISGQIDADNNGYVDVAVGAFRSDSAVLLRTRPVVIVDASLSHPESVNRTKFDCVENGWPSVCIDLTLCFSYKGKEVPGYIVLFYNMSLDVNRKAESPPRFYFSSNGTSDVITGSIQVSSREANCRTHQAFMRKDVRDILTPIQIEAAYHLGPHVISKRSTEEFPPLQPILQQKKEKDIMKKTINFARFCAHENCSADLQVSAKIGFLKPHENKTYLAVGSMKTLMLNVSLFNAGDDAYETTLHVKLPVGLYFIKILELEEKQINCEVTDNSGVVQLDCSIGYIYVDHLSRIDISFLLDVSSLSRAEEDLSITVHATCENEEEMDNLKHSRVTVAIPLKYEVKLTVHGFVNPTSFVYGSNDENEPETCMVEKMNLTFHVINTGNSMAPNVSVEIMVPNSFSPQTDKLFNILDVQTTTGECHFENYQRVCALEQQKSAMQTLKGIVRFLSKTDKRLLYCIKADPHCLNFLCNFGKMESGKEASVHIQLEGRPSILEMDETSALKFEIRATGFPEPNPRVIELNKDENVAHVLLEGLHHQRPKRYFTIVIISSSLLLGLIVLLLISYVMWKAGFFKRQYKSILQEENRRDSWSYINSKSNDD
T1 sequence (P05556 21-798): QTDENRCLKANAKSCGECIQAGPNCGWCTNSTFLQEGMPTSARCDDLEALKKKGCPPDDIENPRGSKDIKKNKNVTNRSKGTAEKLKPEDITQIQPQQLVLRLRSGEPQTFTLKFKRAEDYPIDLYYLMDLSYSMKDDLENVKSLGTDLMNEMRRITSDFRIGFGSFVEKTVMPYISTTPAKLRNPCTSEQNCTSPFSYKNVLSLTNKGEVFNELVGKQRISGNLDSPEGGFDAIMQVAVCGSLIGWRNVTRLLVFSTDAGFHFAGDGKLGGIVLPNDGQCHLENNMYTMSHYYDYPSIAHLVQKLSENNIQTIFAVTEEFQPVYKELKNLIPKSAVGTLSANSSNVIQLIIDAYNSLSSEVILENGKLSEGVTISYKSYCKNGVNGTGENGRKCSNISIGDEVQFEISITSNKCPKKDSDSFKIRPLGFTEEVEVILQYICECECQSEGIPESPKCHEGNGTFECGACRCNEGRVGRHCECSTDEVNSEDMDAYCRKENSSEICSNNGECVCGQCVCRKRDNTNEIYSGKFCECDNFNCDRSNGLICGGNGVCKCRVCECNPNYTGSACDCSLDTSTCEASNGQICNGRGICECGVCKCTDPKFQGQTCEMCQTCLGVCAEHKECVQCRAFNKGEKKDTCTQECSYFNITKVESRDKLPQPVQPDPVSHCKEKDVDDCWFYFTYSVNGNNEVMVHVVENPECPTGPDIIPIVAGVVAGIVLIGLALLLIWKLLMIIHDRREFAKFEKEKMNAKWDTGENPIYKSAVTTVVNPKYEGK

Compound	pIC50 (Table 4)	further results
CCCC[C@@H](C(=O)N[C@@H](CC(=O)O)c1ccc2c(c1)OCO2)N1CC(=O)N(Cc2cccs2)c2ccccc2C1=O [(3S)-3-(1,3-benzodioxol-5-yl)-3-({(2S)-2-[2,5-dioxo-1-(2-thiophenylmethyl)-1,2,3,5-tetrahydro-4H-1,4-benzodiazepin-4-yl]hexanoyl}amino)propanoic acid]		pIC50 (Table 3): 5.82
CCCC[C@@H](C(=O)N[C@@H](CC(=O)O)c1ccc2c(c1)OCO2)N1CCN(Cc2cccs2)C1=O [(3S)-3-(1,3-benzodioxol-5-yl)-3-({(2S)-2-[2-oxo-3-(2-thienylmethyl)-1-imidazolidinyl]hexanoyl}amino)propanoic acid]		inhibition at 100 µM (Ramos, Table 2, compound at a concentration of 100 μM, read-out: % A (percent inhibition of cell adhesion)): 100%; pIC50 (Table 2): 6.82
CCCC[C@@H](C(=O)N[C@@H](CC(=O)O)c1ccc2c(c1)OCO2)n1cccc(C(=O)c2ccccc2)c1=O [(3S)-3-(1,3-benzodioxol-5-yl)-3-({(2S)-2-[2-oxo-3-(phenylcarbonyl)-1(2H)-pyridinyl]hexanoyl}amino)propanoic acid]		pIC50 (Table 3): 6.26
CCCC[C@@H](C(=O)N[C@@H](CC(=O)O)c1ccc2c(c1)OCO2)n1cccc(Cc2ccccc2)c1=O [(3S)-3-(1,3-benzodioxol-5-yl)-3-({(2S)-2-[2-oxo-3-(phenylmethyl)-1(2H)-pyridinyl]hexanoyl}amino)propanoic acid]		pIC50 (Table 3): 8.40
CCCC[C@@H](C(=O)N[C@@H](CC(=O)O)c1ccc2c(c1)OCO2)N1CC(=O)N(Cc2cccs2)[C@@H](Cc2ccccc2)C1=O [(3S)-3-(1,3-benzodioxol-5-yl)-3-({(2S)-2-[(3S)-2,5-dioxo-3-(phenylmethyl)-4-(2-thiophenylmethyl)tetrahydro-1(2H)-pyrazinyl]hexanoyl}amino)propanoic acid]		pIC50 (Table 3): 5.22
CCCCC(C(=O)N[C@@H](CC(=O)O)c1ccc2c(c1)OCO2)n1cccc(Cc2ccccc2)c1=O (stereo partly drawn) [(3S)-3-(1,3-benzodioxol-5-yl)-3-{[2-(3-benzyl-2-oxopyridin-1(2H)-yl)hexanoyl]amino}propanoic acid]	7.52	
CCCC[C@H](C(=O)N[C@@H](CC(=O)O)c1ccc2c(c1)OCO2)n1cc(C)c(O)c(Cc2ccccc2)c1=O [(3S)-3-(1,3-benzodioxol-5-yl)-3-{[(2R)-2-(3-benzyl-4-hydroxy-5-methyl-2-oxopyridin-1(2H)-yl)hexanoyl]amino}propanoic acid]	5.70	
CCCC[C@@H](C(=O)N[C@@H](CC(=O)O)c1ccc2c(c1)OCO2)n1cc(C)c(O)c(Cc2ccccc2)c1=O [(3S)-3-(1,3-benzodioxol-5-yl)-3-{[(2S)-2-(3-benzyl-4-hydroxy-5-methyl-2-oxopyridin-1(2H)-yl)hexanoyl]amino}propanoic acid]	6.70	
CCCCC(C(=O)N[C@@H](CC(=O)O)c1ccc2c(c1)CCC2)n1cc(C)cc(Cc2ccccc2)c1=O (stereo partly drawn) [(3S)-3-(2,3-dihydro-1H-inden-5-yl)-3-({2-[5-methyl-2-oxo-3-(phenylmethyl)-1(2H)-pyridinyl]hexanoyl}amino)propanoic acid]	7.20	
CCCCC(C(=O)N[C@@H](CC(=O)O)c1ccc2c(c1)CCC2)n1cc(C)cc(Cc2ccc3ccccc3c2)c1=O (stereo partly drawn) [(3S)-3-(2,3-dihydro-1H-inden-5-yl)-3-({2-[5-methyl-3-(2-naphthalenylmethyl)-2-oxo-1(2H)-pyridinyl]hexanoyl}amino)propanoic acid]	6.55	
CCCCC(C(=O)N[C@@H](CC(=O)O)c1cccc(OC(C)C)c1)n1cc(C)cc(Cc2ccccc2OC)c1=O (stereo partly drawn) [(3S)-3-(3-isopropoxyphenyl)-3-({2-[3-(2-methoxybenzyl)-5-methyl-2-oxopyridin-1(2H)-yl]hexanoyl}amino)propanoic acid]	8.40	
CCCCC(C(=O)N[C@@H](CC(=O)O)c1ccc(CC)cc1)n1cc(C)cc(Cc2ccccc2)c1=O (stereo partly drawn) [(3S)-3-(4-ethylphenyl)-3-({2-[5-methyl-2-oxo-3-(phenylmethyl)-1(2H)-pyridinyl]hexanoyl}amino)propanoic acid]	7.40	
CCCCC(C(=O)N[C@@H](CC(=O)O)c1cccc(OC(C)C)c1)n1cc(C)cc(Cc2c(Cl)cccc2Cl)c1=O (stereo partly drawn) [(3S)-3-({2-[3-(2,6-dichlorobenzyl)-5-methyl-2-oxopyridin-1(2H)-yl]hexanoyl}amino)-3-(3-isopropoxyphenyl)propanoic acid]	6.56	
CCCCC(C(=O)N[C@@H](CC(=O)O)c1ccc(C)cc1)n1cc(C)cc(Cc2ccccc2Cl)c1=O (stereo partly drawn) [(3S)-3-({2-[3-(2-chlorobenzyl)-5-methyl-2-oxopyridin-1(2H)-yl]hexanoyl}amino)-3-(4-methylphenyl)propanoic acid]	7.82	
CCCCC(C(=O)N[C@@H](CC(=O)O)c1ccccc1)n1cc(C)cc(Cc2ccccc2Cl)c1=O (stereo partly drawn) [(3S)-3-({2-[3-(2-chlorobenzyl)-5-methyl-2-oxopyridin-1(2H)-yl]hexanoyl}amino)-3-phenylpropanoic acid]	7.92	
CCCCC(C(=O)N[C@@H](CC(=O)O)c1cccc(OC(C)C)c1)n1cc(C)cc(Cc2ccccc2OCC)c1=O (stereo partly drawn) [(3S)-3-({2-[3-(2-ethoxybenzyl)-5-methyl-2-oxopyridin-1(2H)-yl]hexanoyl}amino)-3-(3-isopropoxyphenyl)propanoic acid]	7.72	
CCCCC(C(=O)N[C@@H](CC(=O)O)c1cccc(OC(C)C)c1)n1cc(C)cc(Cc2cccc(Cl)c2)c1=O (stereo partly drawn) [(3S)-3-({2-[3-(3-chlorobenzyl)-5-methyl-2-oxopyridin-1(2H)-yl]hexanoyl}amino)-3-(3-isopropoxyphenyl)propanoic acid]	7.70	
CCCCC(C(=O)N[C@@H](CC(=O)O)c1cccc(OCCC)c1)n1cc(C)cc(Cc2cccc(Cl)c2)c1=O (stereo partly drawn) [(3S)-3-({2-[3-(3-chlorobenzyl)-5-methyl-2-oxopyridin-1(2H)-yl]hexanoyl}amino)-3-(3-propoxyphenyl)propanoic acid]	7.64	
CCCCC(C(=O)N[C@@H](CC(=O)O)c1cccc(OC(C)C)c1)n1cc(C)cc(Cc2cccc(Cl)c2Cl)c1=O (stereo partly drawn) [(3S)-3-({2-[3-[(2,3-dichlorophenyl)methyl]-5-methyl-2-oxo-1(2H)-pyridinyl]hexanoyl}amino)-3-{3-[(1-methylethyl)oxy]phenyl}propanoic acid]	7.17	

Second part, led by results:

pIC50 (Table 4)	Compound	further results
8.00	CCCCC(C(=O)N[C@@H](CC(=O)O)c1ccc2ccn(C)c2c1)n1cc(C)cc(Cc2ccccc2)c1=O (stereo partly drawn) [(3S)-3-(1-methyl-1H-indol-6-yl)-3-({2-[5-methyl-2-oxo-3-(phenylmethyl)-1(2H)-pyridinyl]hexanoyl}amino)propanoic acid]	
7.89	CCCCC(C(=O)N[C@@H](CC(=O)O)c1cccc(F)c1)n1cc(C)cc(Cc2ccccc2)c1=O (stereo partly drawn) [(3S)-3-(3-fluorophenyl)-3-({2-[5-methyl-2-oxo-3-(phenylmethyl)-1(2H)-pyridinyl]hexanoyl}amino)propanoic acid]	
7.02	CCCCC(C(=O)N[C@@H](CC(=O)O)c1cccc(OC(C)C)c1)n1ccc(CCc2ccccc2)cc1=O (stereo partly drawn) [(3S)-3-(3-isopropoxyphenyl)-3-({2-[2-oxo-4-(2-phenylethyl)pyridin-1(2H)-yl]hexanoyl}amino)propanoic acid]	
8.30	CCCCC(C(=O)N[C@@H](CC(=O)O)c1cccc(OC(C)C)c1)n1cc(C)cc(Cc2ccccc2Cl)c1=O (stereo partly drawn) [(3S)-3-({2-[3-(2-chlorobenzyl)-5-methyl-2-oxopyridin-1(2H)-yl]hexanoyl}amino)-3-(3-isopropoxyphenyl)propanoic acid]	
